From the NIST ThermoML archive (doi:10.1016/j.jct.2011.02.008)

Assay: xn = mol fraction of the nth substance listed
Conditions: Liquid, Vibrating tube method

COC(=O)c1ccccc1 [methyl benzoate] + CCCCCCO
mass density [kg/m3]
Conditions | x1 = 0.1004 | x1 = 0.2007 | x1 = 0.3007 | x1 = 0.4013 | x1 = 0.5005 | x1 = 0.6009 | x1 = 0.7 | x1 = 0.8008 | x1 = 0.9009
278.15 K, 100 kPa | 856.6 | 883.8 | 911.4 | 938.8 | 966 | 993.4 | 1020.3 | 1047.7 | 1075.1
278.15 K, 1000 kPa | 857.1 | 884.4 | 911.9 | 939.4 | 966.5 | 993.9 | 1020.8 | 1048.2 | 1075.5
278.15 K, 5000 kPa | 859.7 | 886.9 | 914.4 | 941.8 | 968.9 | 996.3 | 1023.2 | 1050.6 | 1077.9
278.15 K, 10000 kPa | 862.7 | 889.9 | 917.3 | 944.8 | 971.9 | 999.2 | 1026 | 1053.4 | 1080.7
278.15 K, 15000 kPa | 865.6 | 892.8 | 920.3 | 947.6 | 974.7 | 1002 | 1028.9 | 1056.3 | 1083.5
278.15 K, 20000 kPa | 868.5 | 895.6 | 923.1 | 950.4 | 977.5 | 1004.7 | 1031.6 | 1059 | 1086.2
278.15 K, 25000 kPa | 871.2 | 898.3 | 925.8 | 953.1 | 980.2 | 1007.4 | 1034.2 | 1061.6 | 1088.7
278.15 K, 30000 kPa | 873.8 | 901 | 928.4 | 955.8 | 982.8 | 1010 | 1036.8 | 1064.2 | 1091.3
278.15 K, 35000 kPa | 876.5 | 903.6 | 931 | 958.3 | 985.4 | 1012.6 | 1039.4 | 1066.7 | 1093.8
278.15 K, 40000 kPa | 879 | 906.1 | 933.6 | 960.9 | 987.9 | 1015.1 | 1041.9 | 1069.2 | 1096.3
278.15 K, 45000 kPa | 881.5 | 908.6 | 936 | 963.3 | 990.4 | 1017.6 | 1044.3 | 1071.7 | 1098.7
278.15 K, 50000 kPa | 883.9 | 911.1 | 938.5 | 965.8 | 992.8 | 1020 | 1046.7 | 1074 | 1101.1
278.15 K, 55000 kPa | 886.3 | 913.4 | 940.8 | 968.1 | 995.2 | 1022.3 | 1049.1 | 1076.4 | 1103.5
278.15 K, 60000 kPa | 888.4 | 915.6 | 943 | 970.3 | 997.3 | 1024.5 | 1051.4 | 1078.7 | 1105.6
288.15 K, 100 kPa | 849.1 | 876 | 903.2 | 930.4 | 957.3 | 984.4 | 1011.1 | 1038.4 | 1065.5
288.15 K, 1000 kPa | 849.7 | 876.6 | 903.8 | 931 | 957.9 | 985 | 1011.7 | 1039 | 1066
288.15 K, 5000 kPa | 852.3 | 879.2 | 906.4 | 933.6 | 960.4 | 987.5 | 1014.2 | 1041.4 | 1068.5
288.15 K, 10000 kPa | 855.5 | 882.4 | 909.5 | 936.7 | 963.5 | 990.6 | 1017.2 | 1044.5 | 1071.5
288.15 K, 15000 kPa | 858.5 | 885.5 | 912.6 | 939.7 | 966.5 | 993.6 | 1020.2 | 1047.4 | 1074.4
288.15 K, 20000 kPa | 861.5 | 888.4 | 915.5 | 942.6 | 969.4 | 996.4 | 1023 | 1050.2 | 1077.2
288.15 K, 25000 kPa | 864.3 | 891.2 | 918.3 | 945.4 | 972.2 | 999.3 | 1025.8 | 1053 | 1080
288.15 K, 30000 kPa | 867.1 | 894 | 921.1 | 948.2 | 975 | 1002 | 1028.5 | 1055.7 | 1082.6
288.15 K, 35000 kPa | 869.8 | 896.7 | 923.8 | 950.9 | 977.7 | 1004.6 | 1031.2 | 1058.3 | 1085.2
288.15 K, 40000 kPa | 872.4 | 899.3 | 926.4 | 953.5 | 980.2 | 1007.2 | 1033.8 | 1060.9 | 1087.8
288.15 K, 45000 kPa | 875 | 901.8 | 929 | 956 | 982.8 | 1009.8 | 1036.3 | 1063.4 | 1090.3
288.15 K, 50000 kPa | 877.5 | 904.4 | 931.5 | 958.5 | 985.3 | 1012.3 | 1038.8 | 1065.9 | 1092.8
288.15 K, 55000 kPa | 879.9 | 906.8 | 933.9 | 961 | 987.8 | 1014.7 | 1041.3 | 1068.3 | 1095.2
288.15 K, 60000 kPa | 882.3 | 909.2 | 936.2 | 963.2 | 990 | 1017 | 1043.7 | 1070.6 | 1097.5
298.15 K, 100 kPa | 841.5 | 868.2 | 895.1 | 922 | 948.6 | 975.5 | 1002 | 1029.1 | 1056
298.15 K, 1000 kPa | 842.2 | 868.8 | 895.7 | 922.6 | 949.2 | 976.1 | 1002.6 | 1029.7 | 1056.6
298.15 K, 5000 kPa | 844.9 | 871.6 | 898.4 | 925.3 | 951.9 | 978.8 | 1005.3 | 1032.3 | 1059.2
298.15 K, 10000 kPa | 848.3 | 874.9 | 901.7 | 928.5 | 955.1 | 982 | 1008.4 | 1035.4 | 1062.3
298.15 K, 15000 kPa | 851.5 | 878 | 904.9 | 931.7 | 958.3 | 985.1 | 1011.5 | 1038.5 | 1065.3
298.15 K, 20000 kPa | 854.5 | 881.1 | 907.9 | 934.7 | 961.3 | 988.1 | 1014.5 | 1041.5 | 1068.3
298.15 K, 25000 kPa | 857.5 | 884.1 | 910.9 | 937.7 | 964.2 | 991 | 1017.4 | 1044.4 | 1071.2
298.15 K, 30000 kPa | 860.4 | 886.9 | 913.8 | 940.5 | 967.1 | 993.9 | 1020.3 | 1047.2 | 1074
298.15 K, 35000 kPa | 863.2 | 889.7 | 916.6 | 943.3 | 969.9 | 996.6 | 1023 | 1049.9 | 1076.7
298.15 K, 40000 kPa | 865.9 | 892.5 | 919.3 | 946.1 | 972.6 | 999.3 | 1025.7 | 1052.6 | 1079.4
298.15 K, 45000 kPa | 868.6 | 895.1 | 921.9 | 948.7 | 975.3 | 1002 | 1028.4 | 1055.3 | 1082
298.15 K, 50000 kPa | 871.1 | 897.7 | 924.5 | 951.3 | 977.8 | 1004.6 | 1031 | 1057.9 | 1084.6
298.15 K, 55000 kPa | 873.7 | 900.2 | 927.1 | 953.9 | 980.4 | 1007.2 | 1033.5 | 1060.4 | 1087.1
298.15 K, 60000 kPa | 876 | 902.5 | 929.4 | 956.2 | 982.7 | 1009.5 | 1035.9 | 1062.7 | 1089
308.15 K, 100 kPa | 834 | 860.4 | 886.9 | 913.6 | 939.9 | 966.6 | 993 | 1019.9 | 1046.6
308.15 K, 1000 kPa | 834.6 | 861.1 | 887.5 | 914.2 | 940.6 | 967.2 | 993.7 | 1020.5 | 1047.2
308.15 K, 5000 kPa | 837.5 | 864 | 890.4 | 917.1 | 943.4 | 970 | 996.4 | 1023.2 | 1049.9
308.15 K, 10000 kPa | 841 | 867.4 | 893.8 | 920.5 | 946.8 | 973.4 | 999.7 | 1026.5 | 1053.1
308.15 K, 15000 kPa | 844.3 | 870.7 | 897.1 | 923.7 | 950 | 976.6 | 1003 | 1029.7 | 1056.4
308.15 K, 20000 kPa | 847.5 | 873.9 | 900.3 | 926.9 | 953.2 | 979.8 | 1006.1 | 1032.8 | 1059.4
308.15 K, 25000 kPa | 850.6 | 877 | 903.4 | 930 | 956.3 | 982.9 | 1009.1 | 1035.8 | 1062.5
308.15 K, 30000 kPa | 853.6 | 879.9 | 906.4 | 933 | 959.3 | 985.9 | 1012.1 | 1038.8 | 1065.3
308.15 K, 35000 kPa | 856.5 | 882.8 | 909.3 | 935.9 | 962.1 | 988.8 | 1014.9 | 1041.7 | 1068.2
308.15 K, 40000 kPa | 859.3 | 885.7 | 912.1 | 938.7 | 965 | 991.6 | 1017.7 | 1044.5 | 1071
308.15 K, 45000 kPa | 862.1 | 888.4 | 914.9 | 941.5 | 967.8 | 994.3 | 1020.5 | 1047.2 | 1073.7
308.15 K, 50000 kPa | 864.7 | 891.1 | 917.6 | 944.1 | 970.5 | 997.1 | 1023.2 | 1049.9 | 1076.4
308.15 K, 55000 kPa | 867.4 | 893.7 | 920.2 | 946.8 | 973.1 | 999.7 | 1025.8 | 1052.5 | 1079.1
308.15 K, 60000 kPa | 869.7 | 896.1 | 922.6 | 949.4 | 975.5 | 1002.1 | 1028.2 | 1055 | 1081.5
318.15 K, 100 kPa | 826.4 | 852.5 | 878.7 | 905.1 | 931.2 | 957.7 | 983.9 | 1010.7 | 1037.2
318.15 K, 1000 kPa | 827.1 | 853.1 | 879.4 | 905.8 | 931.9 | 958.4 | 984.6 | 1011.3 | 1037.8
318.15 K, 5000 kPa | 830.1 | 856.2 | 882.4 | 908.7 | 934.8 | 961.3 | 987.5 | 1014.2 | 1040.7
318.15 K, 10000 kPa | 833.8 | 859.7 | 886 | 912.3 | 938.4 | 964.9 | 991 | 1017.6 | 1044.1
318.15 K, 15000 kPa | 837.2 | 863.2 | 889.4 | 915.8 | 941.8 | 968.2 | 994.3 | 1021 | 1047.4
318.15 K, 20000 kPa | 840.6 | 866.6 | 892.8 | 919.1 | 945.2 | 971.5 | 997.6 | 1024.3 | 1050.6
318.15 K, 25000 kPa | 843.8 | 869.8 | 896 | 922.3 | 948.4 | 974.6 | 1000.8 | 1027.4 | 1053.8
